From patent US8246981B2, “Transdermal method and patch for emesis” (Abeille Pharamaceuticals, Inc., priority 2005, dated 2012) come the findings set out here.

The conditions of this series: IV bolus, once-daily 2 mg/day.

Protocol: A randomized crossover clinical study was conducted in 11 individuals who received either a transdermal patch or an IV solution of granisetron. […] This was followed by a 10 day wash-out period, after which the same individuals received granisetron IV in once-daily dosages of 2 mg/day Individuals who received the IV treatment in the first period received a transdermal patch in the cross over treatment. Blood plasma levels of granisetron for all of the individuals in the test were measured periodically during the 96 hour time that the patches were being worn and the IV dosages were being administered, and for an additional 2 days after the patches were removed and the IV administration discontinued.

`CN1C2CCCC1CC(NC(=O)c1nn(C)c3ccccc13)C2` (stereo not shown) [IV granisetron, granisetron]: the “blood plasma level profile” value was “sharp spikes in blood plasma levels”.
